From patent US20060276464A1, “Diarylsulfone sulfonamides and use thereof” (Wyeth, priority 2005, published 2006)
“And” between values parts separate entries of the source, which are not always exact repeats. Equal entries are not always repeated. Where two headings read alike, the source gives them in different places.

Assays:
SFRP-1 [1] = molecular target: T1, SFRP-1 (Homo sapiens, UniProt Q8N474); experiment: Fluorescence polarization binding assay (competitive displacement of a probe compound from SFRP-1); details: fluorescence anisotropy, 45 nM SFRP-1, 20 nM probe;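 note: test compound competes with a fluorescent probe held by SFRP-1, seen as a drop in probe anisotropy after incubation in darkness, with anisotropy as function of rising compound dose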
T1 sequence (Q8N474 32-314): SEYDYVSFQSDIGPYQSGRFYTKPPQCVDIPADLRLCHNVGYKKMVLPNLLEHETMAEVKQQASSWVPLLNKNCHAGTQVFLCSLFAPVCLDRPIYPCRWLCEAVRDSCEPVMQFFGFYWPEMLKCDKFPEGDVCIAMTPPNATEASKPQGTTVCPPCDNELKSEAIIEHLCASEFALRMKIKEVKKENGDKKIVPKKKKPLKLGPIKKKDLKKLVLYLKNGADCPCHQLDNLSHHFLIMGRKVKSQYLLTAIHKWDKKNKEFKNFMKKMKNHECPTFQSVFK

SFRP-1 [2] = molecular target: T1, SFRP-1; experiment: Cell-based assay for in vitro measurement of SFRP-1/SARP2 antagonist activity (U2OS cells co-transfected with 16x TCF-tk-Luciferase reporter, Wnt and hSFRP-1); details: for fold induction at 10 µM / fold induction at 15 µM: U2OS; for fold induction at 10 µM: read-out: Fold Induction with SFRP-1, U2OS cells, single dose 10 μM, luciferase reporter, fold induction over SFRP-1 control;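 for all read-outs here: U2OS cells co-transfected with a TCF-tk luciferase reporter, a Wnt vector, hSFRP-1 or empty vector and CMV-βgal, luciferase luminescence read in cell lysates alongside βgal activity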
[3] = read-out: Fold Induction with SFRP-1, Conc 15 μM, with SFRP-1, fold induction over SFRP-1 control, single dose
[4] = read-out: Fold Induction without SFRP-1, Conc 15 μM, without SFRP-1, single dose
[5] = read-out: Fold Induction with SFRP-1, Conc 15 μM, single dose, luciferase reporter, fold induction over SFRP-1 control, cells with SFRP-1
[6] = read-out: Fold Induction without SFRP-1, Conc 15 μM, single dose, luciferase reporter, cells without SFRP-1 (specificity control)

Structure (SMILES)	IC50 (SFRP-1 [1])	EC50 (SFRP-1 [2])	fold induction at 10 µM (SFRP-1 [2])	other results
C[C@H](C(N)=O)N1CCC(NS(=O)(=O)c2cc(S(=O)(=O)c3ccccc3)ccc2C(F)(F)F)CC1 [Example 1038, (2R)-2-[4-({[5-(phenylsulfonyl)-2-(trifluoromethyl)phenyl]sulfonyl}amino)piperidin-1-yl]propanamide]	100 nM	331 nM	–	–
O=S(=O)(NCCn1ccnc1)c1cc(S(=O)(=O)c2ccccc2)ccc1C(F)(F)F [Example 739, N-[2-(1H-Imidazol-1-yl)ethyl]-5-(phenylsulfonyl)-2-(trifluoromethyl)benzenesulfonamide]	180 nM	720 nM	5.1	–
COc1ccc(NC(=O)N(C)CCNS(=O)(=O)c2cc(S(=O)(=O)c3ccccc3)ccc2C(F)(F)F)c(OC)c1 [Example 828, N-{2-[{[(2,4-dimethoxyphenyl)amino]carbonyl}(methyl)amino]ethyl}-5-(phenylsulfonyl)-2-(trifluoromethyl)benzenesulfonamide]	300 nM	2360 nM	2.8	–
COCCCNS(=O)(=O)c1cc(S(=O)(=O)c2ccccc2)ccc1C(F)(F)F [Example 768, N-(3-methoxypropyl)-5-(phenylsulfonyl)-2-(trifluoromethyl)benzenesulfonamide]	400 nM	1130 nM	3.4	–
O=C(O)c1cccc(S(=O)(=O)Nc2ccc(CNS(=O)(=O)c3cc(S(=O)(=O)c4ccccc4)ccc3C(F)(F)F)cc2)c1 [Example 963]	300 nM	1160 nM	3.5	–
CC(C)c1ccc(S(=O)(=O)c2ccccc2)cc1S(=O)(=O)NCC(O)c1cccnc1 (stereo not drawn) [Example 735, N-(2-hydroxy-2-pyridin-3-ylethyl)-2-isopropyl-5-(phenylsulfonyl)benzenesulfonamide]	900 nM	–	4.1	–
Cc1ccc(S(=O)(=O)c2ccc(N[C@H](C)C3CCCCC3)cc2)cc1S(=O)(=O)NCCCn1ccnc1 [Example 372, 5-[(4-{[(1R)-1-cyclohexylethyl]amino}phenyl)sulfonyl]-N-[3-(1H-imidazol-1-yl)propyl]-2-methylbenzenesulfonamide]	2000 nM and 2100 nM	–	–	fold induction at 15 µM (SFRP-1 [2]; [3]): 2.2; fold induction at 15 µM (SFRP-1 [2]; [4]): 0.9
CC(C)c1ccc(S(=O)(=O)c2ccc(F)cc2)cc1S(=O)(=O)NCC(O)c1ccccc1 (stereo not drawn) [Example 732, 5-[(4-fluorophenyl)sulfonyl]-N-(2-hydroxy-2-phenylethyl)-2-isopropylbenzenesulfonamide]	1100 nM	–	4.2	–
O=S(=O)(NC1Cc2ccccc2C1)c1cc(S(=O)(=O)c2ccccc2)ccc1C(F)(F)F [Example 772, N-(2,3-dihydro-1H-inden-2-yl)-5-(phenylsulfonyl)-2-(trifluoromethyl)benzenesulfonamide]	80 nM	–	1.2	–
CC(C)c1ccc(S(=O)(=O)c2cccc3c(N(C)C)cccc23)cc1S(=O)(=O)NCCc1ccccn1 [Example 474, 5-{[5-(dimethylamino)-1-naphthyl]sulfonyl}-2-isopropyl-N-(2-pyridin-2-ylethyl)benzenesulfonamide]	800 nM	–	–	fold induction at 15 µM (SFRP-1 [2]; [3]): 1.4; fold induction at 15 µM (SFRP-1 [2]; [4]): 1
CC(C)c1ccc([S@@+]([O-])c2ccccc2)cc1S(=O)(=O)NCCc1ccccn1 [Example 591, 2-isopropyl-5-[(S)-phenylsulfinyl]-N-(2-pyridin-2-ylethyl)benzenesulfonamide]	5000 nM and 6000 nM	–	–	fold induction at 15 µM (SFRP-1 [2]; [5]): 3.1; fold induction at 15 µM (SFRP-1 [2]; [6]): 1.3
COc1ccccc1S(=O)(=O)c1ccc(C(C)C)c(S(=O)(=O)NCCc2ccccn2)c1 [Example 457, 2-isopropyl-5-[(2-methoxyphenyl)sulfonyl]-N-(2-pyridin-2-ylethyl)benzenesulfonamide]	1100 nM	–	–	fold induction at 15 µM (SFRP-1 [2]; [3]): 2.9; fold induction at 15 µM (SFRP-1 [2]; [4]): 1
COCC(=O)N1CCC(NS(=O)(=O)c2cc(S(=O)(=O)c3ccc(F)cc3)ccc2C(C)C)CC1 [Example 519, 5-[(4-fluorophenyl)sulfonyl]-2-isopropyl-N-[1-(methoxyacetyl)piperidin-4-yl]benzenesulfonamide]	800 nM	–	–	fold induction at 15 µM (SFRP-1 [2]; [5]): 3; fold induction at 15 µM (SFRP-1 [2]; [6]): 0.9
CC(C)(C)OC(=O)N1CCC(NS(=O)(=O)c2cc(S(=O)(=O)c3ccc(C(=O)O)cc3)ccc2C(F)(F)F)CC1 [Example 1066, 4-{[3-({[1-(tert-butoxycarbonyl)piperidin-4-yl]amino}sulfonyl)-4-(trifluoromethyl)phenyl]sulfonyl}benzoic acid]	240 nM	615 nM	–	–
CC(C)c1ccc(S(=O)(=O)c2ccccc2)cc1S(=O)(=O)NC1CC(C)(C)NC(C)(C)C1 [Example 935, 2-isopropyl-5-(phenylsulfonyl)-N-(2,2,6,6-tetramethylpiperidin-4-yl)benzenesulfonamide]	7000 nM	2530 nM	2.5	–
CC(C)c1ccc(S(=O)(=O)c2ccc(N3CCN(C)CC3)cc2)cc1S(=O)(=O)NC1CCOCC1 [Example 547, 2-isopropyl-5-{[4-(4-methylpiperazin-1-yl)phenyl]sulfonyl}-N-(tetrahydro-2H-pyran-4-yl)benzenesulfonamide]	1000 nM and 2500 nM	–	–	fold induction at 15 µM (SFRP-1 [2]; [5]): 3.7; fold induction at 15 µM (SFRP-1 [2]; [6]): 1.3
CN(CCCNS(=O)(=O)c1cc(S(=O)(=O)c2ccccc2)ccc1C(F)(F)F)C(=O)OC(C)(C)C [Example 927, tert-butyl methyl[3-({[5-(phenylsulfonyl)-2-(trifluoromethyl)phenyl]sulfonyl}amino)propyl]carbamate]	2400 nM	4510 nM	2.1	–
Cc1ccc(S(=O)(=O)c2ccc(F)cc2)cc1S(=O)(=O)NCC(O)c1cccnc1 (stereo not drawn) [Example 740, 5-[(4-fluorophenyl)sulfonyl]-N-(2-hydroxy-2-pyridin-3-ylethyl)-2-methylbenzenesulfonamide]	6000 nM	–	3.3	–
CC(C)c1ccc(S(=O)(=O)c2ccc(F)cc2)cc1S(=O)(=O)NCC(O)c1ccccn1 (stereo not drawn) [Example 727, 5-[(4-fluorophenyl)sulfonyl]-N-(2-hydroxy-2-pyridin-2-ylethyl)-2-isopropylbenzenesulfonamide]	10000 nM	–	3.2	–
O=C(O)c1cccc(-c2cccc(CNS(=O)(=O)c3cc(S(=O)(=O)c4ccccc4)ccc3C(F)(F)F)c2)c1 [Example 996, 3′-[({[5-(phenylsulfonyl)-2-(trifluoromethyl)phenyl]sulfonyl}amino)methyl]biphenyl-3-carboxylic acid]	300 nM	3010 nM	–	–
CC(C)(C)OC(=O)N1CCC(NS(=O)(=O)c2cc(S(=O)(=O)c3ccccc3)ccc2C(F)(F)F)CC1 [Example 687, tert-butyl 4-({[5-(phenylsulfonyl)-2-(trifluoromethyl)phenyl]sulfonyl}amino)piperidine-1-carboxylate]	500 nM	261 nM	3.2	–
COc1ccc(NC(=S)N2CCC(NS(=O)(=O)c3cc(S(=O)(=O)c4ccc(F)cc4)ccc3C(C)C)CC2)cc1 [Example 695, 4-[({5-[(4-fluorophenyl)sulfonyl]-2-isopropylphenyl}sulfonyl)amino]-N-(4-methoxyphenyl)piperidine-1-carbothioamide]	190 nM	7100 nM	2.1	–
CCCc1ccc(S(=O)(=O)c2ccccc2)cc1S(=O)(=O)NCC1CCOCC1 [Example 552, 5-(Phenylsulfonyl)-2-propyl-N-(tetrahydro-2H-pyran-4-ylmethyl)benzenesulfonamide]	1200 nM	–	–	fold induction at 15 µM (SFRP-1 [2]; [5]): 2.4; fold induction at 15 µM (SFRP-1 [2]; [6]): 1.2
CCc1ccc(S(=O)(=O)c2ccccc2)cc1S(=O)(=O)NCCCn1ccnc1 [Example 231, 2-ethyl-N-[3-(1H-imidazol-1-yl)propyl]-5-(phenylsulfonyl)benzenesulfonamide]	300 nM and 600 nM	–	–	Fold Induction with SFRP-1 (SFRP-1 [2]; Conc 15 μM, with SFRP-1, fold induction over SFRP-1 control, single dose): 2.8 fold; Fold Induction without SFRP-1 (SFRP-1 [2]; Conc 15 μM, without SFRP-1, single dose): 0.8 fold; fold induction at 15 µM (SFRP-1 [2]; [3]): 3.4; fold induction at 15 µM (SFRP-1 [2]; [4]): 1
N#CCCNS(=O)(=O)c1cc(S(=O)(=O)c2ccccc2)ccc1Cl [Example 643, 2-chloro-N-(2-cyanoethyl)-5-(phenylsulfonyl)benzenesulfonamide]	2400 nM	–	–	fold induction at 15 µM (SFRP-1 [2]; [5]): 3.2; fold induction at 15 µM (SFRP-1 [2]; [6]): 1
CC(C)c1ccc(S(=O)(=O)c2ccc(F)cc2)cc1S(=O)(=O)NC1CCN(C(=O)N(C)C)CC1 [Example 573, 4-[({5-[(4-fluorophenyl)sulfonyl]-2-isopropylphenyl}sulfonyl)amino]-N,N-dimethylpiperidine-1-carboxamide]	600 nM	–	–	fold induction at 15 µM (SFRP-1 [2]; [5]): 2.1; fold induction at 15 µM (SFRP-1 [2]; [6]): 1.1
O=S(=O)(NCCc1ccncc1)c1cc(S(=O)(=O)c2ccccc2)ccc1Cl [Example 641, 2-chloro-5-(phenylsulfonyl)-N-(2-pyridin-4-ylethyl)benzenesulfonamide]	1100 nM	–	–	fold induction at 15 µM (SFRP-1 [2]; [5]): 3; fold induction at 15 µM (SFRP-1 [2]; [6]): 1
